Results published in EPA's ToxValDB 9.5 (doi:10.2903/j.efsa.2016.4432).

Legend:
Rattus norvegicus = conditions: acute; oral; mortality
Folsomia candida = conditions: chronic/long-term; mortality
Anas platyrhynchos = conditions: short-term; oral; feed; mortality
Apis mellifera = conditions: acute, mortality
Daphnia magna = conditions: chronic/long-term; duration: 21 days; mortality
Oryctolagus sp. = conditions: developmental; development
Mus musculus = conditions: acute; mortality
Tagia sp. = conditions: chronic/long-term; growth
Typhlodromus pyri = experiment: LR50; higher = less toxic; conditions: not reported; mortality

## COCc1cnc(C2=NC(C)(C(C)C)C(=O)N2)c(C(=O)O)c1 (centres undefined) [Imazamox]
Rattus norvegicus
  LD50: > 5000 mg/kg-day
Folsomia candida
  NOEC: 3.36 mg/kg
Cyprinodon variegatus; acute, duration: 96 hours, mortality
  LC50: > 97 µg/mL
Cyprinodon variegatus; chronic/long-term, duration: 35 days, other
  NOEC: 1.22 mg/L
Anas platyrhynchos
  LD50: > 1930 mg/kg-day
Apis mellifera; dermal
  LD50: > 58 µg/piece
Apis mellifera; oral, unspecified
  LD50: > 40 µg/piece
Daphnia magna
  NOEC: 137 mg/L
Oryctolagus sp.
  NOAEL: 300 mg/kg-day
Mus musculus
  LD50: > 5000 mg/kg-day
Tagia sp.
  NOEC: 5.85 mg/kg
Colinus virginianus; acute, oral, mortality
  LD50: 3490 mg/kg-day
Colinus virginianus; reproduction developmental
  NOAEL: 209 mg/kg-day
Typhlodromus pyri
  LR50: 1340 mL/ha
